Experiments:
[1] = molecular target: T1, α1A receptor (Rattus norvegicus, UniProt P43140); experiment: α1 adrenergic receptor binding test ([3H]prazosin displacement, rat salivary gland membrane homogenate); conditions: [3H]prazosin 0.06 nM as ligand; membrane homogenate of rat salivary gland; 22° C., 60 minutes; specimens 0.02-20 μM
T1 construct: the α1A receptors are present on a membrane of a rat salivary gland; from tissue; host or cells: rat salivary gland membrane homogenate
T1 sequence (P43140 1-466): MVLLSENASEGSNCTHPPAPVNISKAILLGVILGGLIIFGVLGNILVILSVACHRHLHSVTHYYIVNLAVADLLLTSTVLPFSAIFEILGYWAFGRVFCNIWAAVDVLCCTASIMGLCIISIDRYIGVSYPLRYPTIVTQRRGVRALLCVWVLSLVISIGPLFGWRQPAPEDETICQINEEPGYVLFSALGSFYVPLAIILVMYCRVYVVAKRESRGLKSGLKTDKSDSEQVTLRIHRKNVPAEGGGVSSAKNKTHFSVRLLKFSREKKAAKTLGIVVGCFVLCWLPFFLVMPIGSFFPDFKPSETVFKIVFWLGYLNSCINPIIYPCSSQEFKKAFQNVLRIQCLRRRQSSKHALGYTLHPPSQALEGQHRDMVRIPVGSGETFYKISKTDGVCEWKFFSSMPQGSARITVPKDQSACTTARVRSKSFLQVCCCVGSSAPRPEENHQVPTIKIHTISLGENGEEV
Experimental: The compound 19a synthesized in Examples above was weighed, to which 100% dimethylsulfoxide (DMSO) was added so as to prepare a solution at 10-fold of the final concentration. The solution was diluted with an assay buffer, to thereby prepare four types of specimens with different concentrations (0.02 μM, 0.2 μM, 2 μM, 20 μM). In addition, with respect to each of the compound 19b, the racemic mixture of the compounds 19a and 19b, and the racemic mixture of the compounds 20a and 20b, likewise, four types of specimens were prepared (see Mitchel, A. D. et al., (1989) Brt. J. Pharmacol., 98: 883-889).
Next, as the α1 adrenergic receptor, an α1A receptor (one of subtypes of the α1 adrenergic receptor) was used, and a binding ability to the α1A receptor was examined.
It has been known that the α1A receptors are present on a membrane of a rat salivary gland. To an assay buffer (250 μL) containing a membrane homogenate of a rat salivary gland (150 μg in terms of protein amount) were added the above-mentioned specimen and [^3H]prazosin (0.06 nM) as ligand, to thereby prepare a reaction liquid, which was then incubated at 22° C. for 60 minutes. After the incubation, the reaction liquid was subjected to suction filtration using a glass fiber filter (GF/B, manufactured by Packard) which had been washed with 0.3% PEI (polyethyleneimine), to terminate reaction. The glass fiber filter was washed with 50 mM Tris-HCl cooled with ice, washing being repeated several times. The glass fiber filter was dried, a scintillation cocktail (Microscint 0, manufactured by Packard) was added thereto, and residual radioactivity on the filter was measured using a liquid scintillation counter (Topcount, manufactured by Packard). An amount of specific binding of [^3H]prazosin was obtained by subtracting an amount of non-specific binding in the presence of phentolamine (10 μM) from a total binding amount of [^3H]prazosin.

[2] = system: α1 adrenergic receptor; experiment: Rat tail artery constriction inhibition test; conditions: phenylephrine 10 μM, compound 1 μM, 100 μM in organ bath, other receptors blocked with antagonists
Experimental: Since the α1 adrenergic receptor antagonist has been known to have a vasoconstriction inhibition effect, the constriction inhibition effect of the compounds was examined using rat tail artery.
The compound 19a synthesized in Examples above was weighed, to which 100% dimethylsulfoxide (DMSO) was added so as to prepare a sample solution (stock solution) (concentration of the compound 19a: 100 mM). In addition, the compound 19b, the racemic mixture of the compounds 19a and 19b, and the racemic mixture of the compounds 20a and 20b were prepared likewise.
A tissue (rat tail artery) with an exposed endothelium was suspended in an organ bath filled with 20 mL of saline (NaCl: 118.0 mM, KCl: 4.7 mM, MgSO4: 1.2 mM, CaCl2: 2.5 mM, NaHCO3: 25 mM, glucose: 11.0 mM) (pH7.4) at 37° C., into which 95% oxygen/5% carbon dioxide had been fed. In the rat tail artery tissue, the α2 adrenergic receptor, β adrenergic receptor, histamine H1 receptor, muscarine receptor, and 5-HT2 receptor had been expressed like the α1 adrenergic receptor had, and in order to block the actions of these receptors, antagonistic agents (antagonists) for the respective receptor, i.e., yohimbine (1 μM), propranol (1 μM), pyrilamine (1 μM), atropine (1 μM), and methysergide (1 μM), were added.
In order to measure the contraction of the tissue caused by an action of the α1 adrenergic receptor, the tissue was connected to a force transducer which outputs a tension of the tissue as data. The tension in a static state was adjusted to become 1 g, and was maintained for 60 minutes (during that time period, the tissue was repeatedly washed with saline to readjust the tension). To the tissue was added 10 μM of a reference agonist (phenylephrine 1.0E-05M), and it was confirmed that the tissue responded in a normal manner. At the same time, there was recorded the tension (g) obtained by the contraction of the tissue caused by the action of the reference agonist. After confirming that the tissue responded in a normal manner, the reference agonist was washed out once, and the tissue was allowed to stand still for up to 15 minutes until the response returns to a static state (tension: 1 g).
After the response returned to the static state (tension: 1 g), the reference agonist was added so that the contraction rate of the tissue becomes 100%.
Next, the sample solution or a diluted solution thereof was added in such a manner that each of the concentrations of the compound 19a, the compound 19b, the racemic mixture of the compounds 19a and 19b, and the racemic mixture of the compounds 20a and 20b in the organ bath was increased in three stages (1 μM, 10 μM, 100 μM). Every time the concentration was increased, the tension was measured, and the contraction rate was calculated using the following equation. […]

Row | IC50 [1] | Compound | effect on contraction of rat tail artery caused by reference agonist (phenylephrine) [2]
1 | 2390 nM | COC(=O)C1c2cc(C=CC(=O)NCCCCNC(=N)N)ccc2OC1c1ccc(O)cc1 (racemic) [racemic mixture of the compounds 19a and 19b, methyl-5-(1E)-[[4-(aminoiminomethyl)amino]butylamino]-3-oxo-1-propenyl]-2,3-dihydro-2-(4-hydroxyphenyl)-3-benzofurancarboxylate] | suppressed a response in the reference agonist (phenylephrine) in a dosage-dependent manner
2 | 1990 nM | N=C(N)NCCCCNC(=O)/C=C/c1ccc2c(c1)C(C(=O)O)C(c1ccc(O)cc1)O2 (racemic) [racemic mixture of the compounds 20a and 20b] | suppressed a response in the reference agonist (phenylephrine) in a dosage-dependent manner
3 | 2030 nM | COC(=O)[C@@H]1c2cc(/C=C/C(=O)NCCCCNC(=N)N)ccc2O[C@H]1c1ccc(O)cc1 [compound 19a] | suppressed a response in the reference agonist (phenylephrine) in a dosage-dependent manner
4 | 610 nM | COC(=O)[C@H]1c2cc(/C=C/C(=O)NCCCCNC(=N)N)ccc2O[C@@H]1c1ccc(O)cc1 [compound 19b] | suppressed a response in the reference agonist (phenylephrine) in a dosage-dependent manner
